The values that follow come from patent publication US20110160196A1, “FACTOR XA INHIBITORS” (Millennium Pharmaceuticals, Inc., priority 2007, published 2011).

This test deals with T1, human plasma protein factor Xa (Homo sapiens, UniProt P00742).
T1 construct: The human plasma protein factor Xa was purchased; purchased Haematologic Technologies (Essex Junction, Vt.); host or cells: human plasma
T1 sequence (P00742 235-488 limits assumed): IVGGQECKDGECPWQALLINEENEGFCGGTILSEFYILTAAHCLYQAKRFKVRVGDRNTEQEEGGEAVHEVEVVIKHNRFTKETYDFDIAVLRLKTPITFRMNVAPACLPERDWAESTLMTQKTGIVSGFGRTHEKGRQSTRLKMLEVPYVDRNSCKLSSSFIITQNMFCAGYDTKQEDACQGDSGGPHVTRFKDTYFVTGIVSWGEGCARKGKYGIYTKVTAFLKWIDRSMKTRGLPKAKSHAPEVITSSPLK
T1 sequence (P00742 41-179 partner limits assumed): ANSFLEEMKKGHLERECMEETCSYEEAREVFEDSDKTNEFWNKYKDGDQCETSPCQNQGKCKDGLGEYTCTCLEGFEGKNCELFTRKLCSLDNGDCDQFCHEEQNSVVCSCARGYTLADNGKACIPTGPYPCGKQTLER
Kind of test: Factor Xa IC50 determination (cleavage of paranitroanilide substrate S-2765). Type of test: biochemical. Conditions: factor Xa 1 nM, S-2765 100 μM, Tris buffered saline pH 7.4, read at 405 nm. A digest of the protocol:
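Human plasma factor Xa (1 nM) preincubated 5 min at room temperature with inhibitor (0.01 nM–10 μM) in Tris-buffered saline pH 7.4 with 5 mM CaCl2, 0.1% BSA, 5% DMSO. S-2765 added at 100 μM final; pNA release followed at 405 nm for 2 min. IC50 from four-parameter fit of initial velocities.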
One may read the IC50 as the concentration that gives 50% inhibition. Read a high IC50 as weaker potency in that assay. Regarding `CC(=O)N1CCN(c2cc(-n3ccccc3=O)ccc2-n2cc(CNC(=O)c3ccc(Cl)s3)nn2)CC1` [Compound 13, N-((1-(2-(4-Acetylpiperazin-1-yl)-4-(2-oxopyridin-1(2H)-yl)phenyl)-1H-1,2,3-triazol-4-yl)methyl)-5-chlorothiophene-2-carboxamide], the IC50 is at most 100 nM. Then `CN(C)C1CCN(c2cc(-n3ccccc3=O)ccc2-n2cc(CNC(=O)c3ccc(Cl)s3)nn2)CC1` [Compound 16, 5-Chloro-N-((1-(2-(4-(dimethylamino)piperidin-1-yl)-4-(2-oxopyridin-1(2H)-yl)phenyl)-1H-1,2,3-triazol-4-yl)methyl)thiophene-2-carboxamide], with at most 100 nM; and `CC(=N)N1CCN(c2cc(-n3ccccc3=O)ccc2-n2cc(CNC(=O)c3ccc(Cl)s3)nn2)CC1` [Compound 14, 5-Chloro-N-((1-(2-(4-(1-iminoethyl)piperazin-1-yl)-4-(2-oxopyridin-1(2H)-yl)phenyl)-1H-1,2,3-triazol-4-yl)methyl)thiophene-2-carboxamide], with at most 100 nM; and `O=C(NCc1cn(-c2ccc(-n3ccccc3=O)cc2OCc2nnn[nH]2)nn1)c1ccc(Cl)s1` [Compound 98, N-((1-(2-((1H-Tetrazol-5-yl)methoxy)-4-(2-oxopyridin-1(2H)-yl)phenyl)-1H-1,2,3-triazol-4-yl)methyl)-5-chlorothiophene-2-carboxamide], with at most 100 nM. Regarding `O=C(NCc1cn(-c2ccc(-n3ccccc3=O)cc2OCc2ccc3ccccc3n2)nn1)c1ccc(Cl)s1` [Compound 170, 5-Chloro-N-((1-(4-(2-oxopyridin-1(2H)-yl)-2-(quinolin-2-ylmethoxy)phenyl)-1H-1,2,3-triazol-4-yl)methyl)thiophene-2-carboxamide], the IC50 is at most 100 nM. On to `CN(C)c1ccc(-c2cc(-n3ccccc3=O)ccc2-n2cc(CNC(=O)c3ccc(Cl)s3)nn2)cn1` [Compound 145, 5-Chloro-N-((1-(2-(6-(dimethylamino)pyridin-3-yl)-4-(2-oxopyridin-1(2H)-yl)phenyl)-1H-1,2,3-triazol-4-yl)methyl)thiophene-2-carboxamide], for which the 50% inhibitory concentration (IC50) is at most 100 nM.

On to `NCCCOc1cc(-n2ccccc2=O)ccc1-n1cc(CNC(=O)c2ccc(Cl)s2)nn1` [Compound 68, N-((1-(2-(3-Aminopropoxy)-4-(2-oxopyridin-1(2H)-yl)phenyl)-1H-1,2,3-triazol-4-yl)methyl)-5-chlorothiophene-2-carboxamide], for which the IC50 was at most 100 nM. The result for `O=C(NCc1cn(-c2ccc(-n3ccccc3=O)cc2N2CCCC2=O)nn1)c1ccc(Cl)s1` [Compound 43, 5-Chloro-N-((1-(4-(2-oxopyridin-1(2H)-yl)-2-(2-oxopyrrolidin-1-yl)phenyl)-1H-1,2,3-triazol-4-yl)methyl)thiophene-2-carboxamide] reads at most 100 nM; that for `O=C(NCc1cn(-c2ccc(-n3ccccc3=O)cc2Oc2ccncc2)nn1)c1ccc(Cl)s1` [Compound 63, 5-Chloro-N-((1-(4-(2-oxopyridin-1(2H)-yl)-2-(pyridin-4-yloxy)phenyl)-1H-1,2,3-triazol-4-yl)methyl)thiophene-2-carboxamide], at most 100 nM; that for `O=C1CN(C(=O)c2cc(-n3ccccc3=O)ccc2-n2cc(CNC(=O)c3ccc(Cl)s3)nn2)CCN1` [Compound 114, 5-Chloro-N-((1-(2-(2-oxopiperazine-4-carbonyl)-4-(2-oxopyridin-1(2H)-yl)phenyl)-1H-1,2,3-triazol-4-yl)methyl)thiophene-2-carboxamide], at most 100 nM. Then `O=C(NCc1nnn(-c2ccc(-n3ccccc3=O)cc2OCCCO)c1I)c1ccc(Cl)s1` [Compound 153, 5-Chloro-N-((1-(2-(3-hydroxypropoxy)-4-(2-oxopyridin-1(2H)-yl)phenyl)-5-iodo-1H-1,2,3-triazol-4-yl)methyl)thiophene-2-carboxamide], with 100 to 500 nM; and `CNCCN(C)C(=O)c1cc(-n2ccccc2=O)ccc1-n1cc(CNC(=O)c2ccc(Cl)s2)nn1` [Compound 110, 5-Chloro-N-((1-(2-(methyl(2-(methylamino)ethyl)carbamoyl)-4-(2-oxopyridin-1(2H)-yl)phenyl)-1H-1,2,3-triazol-4-yl)methyl)thiophene-2-carboxamide], with 100 to 500 nM; and `NC(=O)C1CCN(c2cc(-n3ccccc3=O)ccc2-n2cc(CNC(=O)c3ccc(Cl)s3)nn2)CC1` [Compound 25, 1-(2-(4-((2-Chlorothiophene-5-carboxamido)methyl)-1H-1,2,3-triazol-1-yl)-5-(2-oxopyridin-1(2H)-yl)phenyl)piperidine-4-carboxamide], with at most 100 nM. Then `O=C(NCc1cn(-c2ccc(-n3ccccc3=O)cc2-c2ccnc(F)c2)nn1)c1ccc(Cl)s1` [Compound 134, 5-Chloro-N-((1-(2-(2-fluoropyridin-4-yl)-4-(2-oxopyridin-1(2H)-yl)phenyl)-1H-1,2,3-triazol-4-yl)methyl)thiophene-2-carboxamide], with at most 100 nM; and `NC(=O)CNC(=O)c1cc(-n2ccccc2=O)ccc1-n1cc(CNC(=O)c2ccc(Cl)s2)nn1` [Compound 108, N-((1-(2-((2-Amino-2-oxoethyl)carbamoyl)-4-(2-oxopyridin-1(2H)-yl)phenyl)-1H-1,2,3-triazol-4-yl)methyl)-5-chlorothiophene-2-carboxamide], with 100 to 500 nM; and `O=C(NCc1cn(-c2ccc(-n3ccccc3=O)cc2OCc2ccncc2)nn1)c1ccc(Cl)s1` [Compound 167, 5-Chloro-N-((1-(4-(2-oxopyridin-1(2H)-yl)-2-(pyridin-4-ylmethoxy)phenyl)-1H-1,2,3-triazol-4-yl)methyl)thiophene-2-carboxamide], with at most 100 nM. As to `CCS(=O)(=O)CCOc1cc(-n2ccccc2=O)ccc1-n1cc(CNC(=O)c2ccc(Cl)s2)nn1` [Compound 82, 5-Chloro-N-((1-(2-(2-(ethylsulfonyl)ethoxy)-4-(2-oxopyridin-1(2H)-yl)phenyl)-1H-1,2,3-triazol-4-yl)methyl)thiophene-2-carboxamide], the IC50 is at most 100 nM. Then `O=C(NCc1cn(-c2ccc(-n3ccccc3=O)cc2N2CCC(O)CC2)nn1)c1ccc(Cl)s1` [Compound 21, 5-Chloro-N-((1-(2-(4-hydroxypiperidin-1-yl)-4-(2-oxopyridin-1(2H)-yl)phenyl)-1H-1,2,3-triazol-4-yl)methyl)thiophene-2-carboxamide], with at most 100 nM; and `O=C(NCc1nnn(-c2ccc(-n3ccccc3=O)cc2OC[C@H](O)CO)c1I)c1ccc(Cl)s1` [Compound 154, 5-Chloro-N-((1-(2-((R)-2,3-dihydroxypropoxy)-4-(2-oxopyridin-1(2H)-yl)phenyl)-5-iodo-1H-1,2,3-triazol-4-yl)methyl)thiophene-2-carboxamide], with 100 to 500 nM; and `O=C(NCc1cn(-c2ccc(-n3ccccc3=O)cc2OCc2cccnc2)nn1)c1ccc(Cl)s1` [Compound 165, 5-Chloro-N-((1-(4-(2-oxopyridin-1(2H)-yl)-2-(pyridin-3-ylmethoxy)phenyl)-1H-1,2,3-triazol-4-yl)methyl)thiophene-2-carboxamide], with at most 100 nM.

Take `O=C(NCc1cn(-c2ccc(-n3ccccc3=O)cc2C(=O)N2CCNCC2)nn1)c1ccc(Cl)s1` [Compound 113, 5-Chloro-N-((1-(4-(2-oxopyridin-1(2H)-yl)-2-(piperazine-1-carbonyl)phenyl)-1H-1,2,3-triazol-4-yl)methyl)thiophene-2-carboxamide]: the IC50 was in the range of 100 to 500 nM. Then `O=C(NCc1cn(-c2ccc(-n3ccccc3=O)cc2OCCn2cccn2)nn1)c1ccc(Cl)s1` [Compound 156, N-((1-(2-(2-(1H-Pyrazol-1-yl)ethoxy)-4-(2-oxopyridin-1(2H)-yl)phenyl)-1H-1,2,3-triazol-4-yl)methyl)-5-chlorothiophene-2-carboxamide], with at most 100 nM; and `O=C(NCc1cn(-c2ccc(-n3ccccc3=O)cc2OCCN2CCCCC2)nn1)c1ccc(Cl)s1` [Compound 89, 5-Chloro-N-((1-(4-(2-oxopyridin-1(2H)-yl)-2-(2-(piperidin-1-yl)ethoxy)phenyl)-1H-1,2,3-triazol-4-yl)methyl)thiophene-2-carboxamide], with at most 100 nM; and `NCCNc1cc(-n2ccccc2=O)ccc1-n1cc(CNC(=O)c2ccc(Cl)s2)nn1` [Compound 30, N-((1-(2-(2-Aminoethylamino)-4-(2-oxopyridin-1(2H)-yl)phenyl)-1H-1,2,3-triazol-4-yl)methyl)-5-chlorothiophene-2-carboxamide], with at most 100 nM. Take `CN(C)CCNC(=O)c1cc(-n2ccccc2=O)ccc1-n1cc(CNC(=O)c2ccc(Cl)s2)nn1` [Compound 109, N-((1-(2-((2-(Dimethylamino)ethyl)carbamoyl)-4-(2-oxopyridin-1(2H)-yl)phenyl)-1H-1,2,3-triazol-4-yl)methyl)-5-chlorothiophene-2-carboxamide]: the IC50 is at most 100 nM. The result for `O=C1CN(c2cc(-n3ccccc3=O)ccc2-n2cc(CNC(=O)c3ccc(Cl)s3)nn2)CCN1` [Compound 6, 5-Chloro-N-((1-(2-(3-oxopiperazin-1-yl)-4-(2-oxopyridin-1(2H)-yl)phenyl)-1H-1,2,3-triazol-4-yl)methyl)thiophene-2-carboxamide] reads at most 100 nM; that for `CN(C)CCN(C)C(=O)c1cc(-n2ccccc2=O)ccc1-n1cc(CNC(=O)c2ccc(Cl)s2)nn1` [Compound 111, 5-Chloro-N-((1-(2-((2-(dimethylamino)ethyl)(methyl)carbamoyl)-4-(2-oxopyridin-1(2H)-yl)phenyl)-1H-1,2,3-triazol-4-yl)methyl)thiophene-2-carboxamide], 100 to 500 nM; that for `O=C(NCc1cn(-c2ccc(-n3ccccc3=O)cc2-c2cccnc2)nn1)c1ccc(Cl)s1` [Compound 126, 5-Chloro-N-((1-(4-(2-oxopyridin-1(2H)-yl)-2-(pyridin-3-yl)phenyl)-1H-1,2,3-triazol-4-yl)methyl)thiophene-2-carboxamide], at most 100 nM.
